# According to patent US10716790B2, “Method for treating cancer by combined use” (priority 2015, dated 2020):
# Legend:
# [1] = test system: human acute myeloid leukemia cell line MOLM-13 cells having a FLT3-ITD mutation and wild-type TP53; assay: In vivo effect of combined use on subcutaneously transplanted MOLM-13 tumors in NOD-SCID mice; settings: oral; for TGI (%): 17 days after tumor inoculation
# Description: (§1) Human acute myeloid leukemia cell line MOLM-13 cells having a FLT3-ITD mutation and wild-type TP53 were suspended to 5×10^7 cells/mL using phosphate-buffered saline. 0.1 mL of the prepared cell suspension was subcutaneously transplanted to each NOD-SCID mouse (male, 5 to 7 weeks old). On 6 days after the tumor inoculation, after confirmation that the average tumor volume exceeded 100 mm^3, the mice were randomized (N=6/group) on the basis of their tumor volume values. […] The administration was performed once a day for 5 consecutive days (6 to 10 days after the tumor inoculation) from the date of randomization (6 days after the tumor inoculation), and after a 2-day drug holiday, performed once a day for 4 consecutive days (13 to 16 days after the tumor inoculation). The length (mm) and width (mm) of tumor were measured over time using an electronic digital caliper. Tumor growth inhibition % (TGI %) on the date of assessment (17 days after the tumor inoculation) calculated according to calculation formula (4) shown below was used in evaluation. Also, the body weights were measured over time using an automatic balance for small animals, and body weight change % was calculated according to calculation formula (5) shown below to assess the influence of drug administration on the body weights. In addition, the results of the last body weight measurement were used in dose calculation. TGI (%)=(1−A/B)×100 (4)
# A: Average tumor volume of the compound-administered group on the date of assessment (*)
# B: Average tumor volume of the untreated control group on the date of assessment (*)
# (§2) *: The tumor volume was calculated according to ½×[Major axis of tumor]×[Minor axis of tumor]×[Minor axis of tumor]. Body weight change (%)=Average body weight change % of the individuals Body weight change % of each individual=[…] (5)
# [2] = Body weight change of MOLM-13 tumor-bearing NOD-SCID mice under drug administration; assay type: in vivo, mouse; settings: oral
# Description: as §1, §2
# BWn: Body weight on day n
# BWs: Body weight on the start day of administration
# [3] = DS-3032b 25 mg/kg, day 6 after tumor inoculation
# [4] = DS-3032b 25 mg/kg, day 8 after tumor inoculation
# [5] = DS-3032b 25 mg/kg, day 10 after tumor inoculation
# [6] = DS-3032b 25 mg/kg, day 13 after tumor inoculation
# [7] = DS-3032b 25 mg/kg, day 15 after tumor inoculation
# [8] = DS-3032b 25 mg/kg, day 17 after tumor inoculation
# [9] = DS-3032b 50 mg/kg, day 6 after tumor inoculation
# [10] = DS-3032b 50 mg/kg, day 8 after tumor inoculation
# [11] = DS-3032b 50 mg/kg, day 10 after tumor inoculation
# [12] = DS-3032b 50 mg/kg, day 13 after tumor inoculation
# [13] = DS-3032b 50 mg/kg, day 15 after tumor inoculation
# [14] = DS-3032b 50 mg/kg, day 17 after tumor inoculation
compound,measurement,setting,value
"CC1(C)CCC2(CC1)N[C@@H](C(=O)N[C@@H]1CC[C@@H](C(N)=O)OC1)[C@H](c1ccnc(Cl)c1F)[C@]21C(=O)Nc2cc(Cl)ccc21.Cc1ccc(S(=O)(=O)O)cc1 [Compound A, (3′R,4′S,5′R)—N-[(3R,6S)-6-carbamoyltetrahydro-2H-pyran-3-yl]-6″-chloro-4′-(2-chloro-3-fluoropyridin-4-yl)-4,4-dimethyl-2″-oxo-1″,2″-dihydrodispiro[cyclohexane-1,2′-pyrrolidine-3′,3″-indole]-5′-carboxamide tosylate]",TGI (%),[1]; Compound A 25 mg/kg,38%
same,TGI (%),[1]; Compound A 50 mg/kg,82%
same,"Estimated tumor volume (mm^3), average",[1]; [3],169 mm^3
same,"Estimated tumor volume (mm^3), average",[1]; [4],266 mm^3
same,"Estimated tumor volume (mm^3), average",[1]; [5],425 mm^3
same,"Estimated tumor volume (mm^3), average",[1]; [6],812 mm^3
same,"Estimated tumor volume (mm^3), average",[1]; [7],983 mm^3
same,"Estimated tumor volume (mm^3), average",[1]; [8],1661 mm^3
same,"Estimated tumor volume (mm^3), average",[1]; [9],162 mm^3
same,"Estimated tumor volume (mm^3), average",[1]; [10],195 mm^3
same,"Estimated tumor volume (mm^3), average",[1]; [11],210 mm^3
same,"Estimated tumor volume (mm^3), average",[1]; [12],325 mm^3
same,"Estimated tumor volume (mm^3), average",[1]; [13],375 mm^3
same,"Estimated tumor volume (mm^3), average",[1]; [14],467 mm^3
same,"Body weight change (%), average",[2]; [3],0.0%
same,"Body weight change (%), average",[2]; [4],2.1%
same,"Body weight change (%), average",[2]; [5],3.1%
same,"Body weight change (%), average",[2]; [6],6.4%
same,"Body weight change (%), average",[2]; [7],8.0%
same,"Body weight change (%), average",[2]; [8],10.6%
same,"Body weight change (%), average",[2]; [9],0.0%
same,"Body weight change (%), average",[2]; [10],1.5%
same,"Body weight change (%), average",[2]; [11],2.7%
same,"Body weight change (%), average",[2]; [12],5.5%
same,"Body weight change (%), average",[2]; [13],6.8%
same,"Body weight change (%), average",[2]; [14],5.8%
"CC(C)(C)c1cc(NC(=O)Nc2ccc(-c3cn4c(n3)sc3cc(OCCN5CCOCC5)ccc34)cc2)no1 [Quizartinib, N-(5-tert-butyl-isoxazol-3-yl)-N′-{4-[7-(2-morpholin-4-yl-ethoxy)imidazo[2,1-b][1,3]benzothiazol-2-yl]phenyl}urea, reference compound]","Body weight change (%), average","[2]; Quizartinib 0.5 mg/kg, day 6 after tumor inoculation",0.0%
same,"Body weight change (%), average","[2]; Quizartinib 0.5 mg/kg, day 8 after tumor inoculation",4.2%
same,"Body weight change (%), average","[2]; Quizartinib 0.5 mg/kg, day 10 after tumor inoculation",4.2%
same,"Body weight change (%), average","[2]; Quizartinib 0.5 mg/kg, day 13 after tumor inoculation",8.5%
same,"Body weight change (%), average","[2]; Quizartinib 0.5 mg/kg, day 15 after tumor inoculation",9.6%
same,"Body weight change (%), average","[2]; Quizartinib 0.5 mg/kg, day 17 after tumor inoculation",10.7%
same,"Body weight change (%), average","[2]; Quizartinib 1 mg/kg, day 6 after tumor inoculation",0.0%
same,"Body weight change (%), average","[2]; Quizartinib 1 mg/kg, day 8 after tumor inoculation",0.2%
same,"Body weight change (%), average","[2]; Quizartinib 1 mg/kg, day 10 after tumor inoculation",1.8%
same,"Body weight change (%), average","[2]; Quizartinib 1 mg/kg, day 13 after tumor inoculation",4.6%
same,"Body weight change (%), average","[2]; Quizartinib 1 mg/kg, day 15 after tumor inoculation",5.1%
same,"Body weight change (%), average","[2]; Quizartinib 1 mg/kg, day 17 after tumor inoculation",5.8%
